We go through 7 molecules from patent US20250215493A1, “NUCLEOTIDES WITH ENZYMATICALLY CLEAVABLE 3'-O-GLYCOSIDE BLOCKING GROUPS FOR SEQUENCING” (Illumina, Inc., priority 2023, published 2025).

Series [1] has as its system α-Mannosidase 92B, Bacteroides thetaiotaomicron. In words: Cleavage of 3′-glycoside thymidine by glycosyl hydrolases (HPLC). Format: biochemical. The note with it: 100 mM HEPES pH 7.0, 2 mM CaCl2, 37° C. How it is done: (§1) The cleavage of the 3′-glycoside moiety from 3′-(β)-glucopyranoside thymidine, 3′-(β)-xylopyranoside thymidine and 3′-(α)-mannopyranoside thymidine using glycosyl hydrolases was tested by incubating the nucleoside substrate (200 μM) with the enzyme (2 μM) in buffer. At set timepoints, 50 μL aliquots of the reaction solution were taken and quenched with 50 μL of either 0.1 M EDTA or […]. The aliquots were then analysed by reverse phase HPLC (YMC-Triart C18 Column, 12 nm, 5 μm, 250×4.6 mm column) using a gradient from 0% to 8% acetonitrile in 0.1 M TEAB over 25 minutes, monitoring the disappearance of the 3′-glycopyranoside thymidine substrate peak and the appearance of the thymidine product peak.

Series [2] has as its system α-Mannosidase 92S, Bacteroides thetaiotaomicron. The series is described as above. Format: biochemical. As to conditions: 100 mM HEPES pH 7.0, 2 mM CaCl2, 37° C. How it is done:
as §1

The test system of series [3] is β-Glucosidase 1A, Thermus thermophilus. Described as above. Format: biochemical. As to conditions: 100 mM sodium citrate pH 6.5, 50° C.; 200 μM substrate, 2 μM enzyme. How it is done:
as §1

Series [4] concerns β-Glucosidase 3B, Cellvibrio japonicus. Described as above. The series is classed as biochemical. As to conditions: 37° C. Here is the method: as §1
Series [5] concerns β-Glucosidase 1A, Thermobifida fusca. The series is described as above. The series is classed as biochemical. The note with it: 100 mM HEPES pH 7.0, 50° C.; 200 μM substrate, 2 μM enzyme. Here is the method:
as §1

Series [6] concerns Xylosidase 39A, Clostridium stercorarium. The series is described as above. Format: biochemical. As to conditions: 100 mM MES pH 6.0, 5 mM CaCl2, 50° C. How it is done: as §1
For series [7], the system named is Xylosidase 3A, Sulfolobus solfataricus. Described as above. The series is classed as biochemical. The note with it: 100 mM MES pH 6.0, 50° C. How it is done:
as §1

Series [8] relates to Xylosidase 43A, Thermobifida fusca. The series is described as above. Format: biochemical. As to conditions: 100 mM sodium citrate pH 5.5, 50° C. How it is done: as §1
The test system of a further series is Pol A (SBS polymerase). In words: Sequencing flowcell assay, loss of % T call signal on incorporation of unlabeled 3′ blocked dTTP. Format: biochemical. How it is done:
(§2) A further example examined whether cleavage of 3′-ABF is feasible on DNA clusters on the surface of a sequencing flow cell. To this end, a sequencing assay monitoring the loss and recovery of % T call signal as read-out was carried out using an Illumina NextSeq 2000 instrument with a P2 flow cell. FIG. 4A illustrates the sequencing assay workflow using loss and recovery of % T call signal as readout, including: (1) The % T call signal baseline based on a standard Illumina Green ffT (e.g., ffT-3′-AZM-LN3-AF550POPOso) is first established with a series of SBS cycles using standard SBS chemistry; (2) incorporation by Pol A (SBS polymerase) of unlabeled dTTP with a different 3′-block (i.e., 3′-ABF dTTP or 3′-AOM dTTP used as control) results in the loss of this signal; (3) the % T signal is only partially recovered to around 75% relative to the initial baseline in subsequent standard cycles as around 25% DNA clusters are blocked by the alternative 3′-block which is uncleaved under standard SBS chemistry conditions; (4) injection of the cleavage mix specifically removing this block (i.e., ABFase removing the 3′-ABF or Pd catalyst removing 3′-AOM for the control experiment) followed by standard cycles resulting in the full recovery of the signal. […]

In the next series the test system is C. japonicum ABFase. In words: Sequencing flowcell assay, recovery of % T call signal after enzymatic cleavage from DNA clusters. The series is classed as biochemical. As to conditions: 30 minutes, 60° C., pH 5.5. How it is done:
as §2

Another series concerns T. maritima GH51 ABFase. Put plainly: Enzymatic cleavage of 3′-ABF deoxythymidine by GH51 ABFase (HPLC). The series is classed as biochemical, Thermotoga maritima. As to conditions: 80° C., sodium phosphate pH 6.5; 200 μM substrate, 2 μM enzyme. Here is the method:
(§3) Candidate arabinofuranosidases (ABFases) were tested for hydrolysis of 3′-ABF. 3′-ABF deoxythymidine was preincubated in […] sodium citrate pH 5.5 or sodium phosphate pH 6.5 at designated temperatures for 5 minutes. Enzyme was added to the reaction so that the final reaction contained 200 μM substrate and 2 μM enzyme. At indicated time points, 50 μL aliquots were removed and quenched with 50 μL 0.1N NaOH prior to analysis by HPLC (YMC Triart C18, 250×4.5 mm, S-5 μm, 12 nm, 0.1M TEAB/100% Acetonitrile) to determine the percentage of enzymatically unblocked nucleotide (or % deprotection).
(§4) Various arabinofuranosidases (ABFases) included CAZy Glycoside Hydrolases family 51 (GH51) from Thermotoga maritima, Cellvibrio japonicus, Clostridium thermocellum, Bacillus subtilis, and Podosporina anserina. The molar ratio of enzyme to 3′-ABF deoxythymidine was 1:100 in all reaction mixes. The reaction using T. maritima ABFase was carried out at 80° C. with a sodium phosphate buffer to ensure a pH of 6.5. The reaction using C. japonicus ABFase was carried out at 37° C. with a sodium citrate buffer to ensure a pH of 5.5. The reaction using C. thermocellum ABFase was carried out at 65° C. with a sodium phosphate buffer to ensure a pH of 6.5. The reaction using B. subtilis ABFase was carried out at 60° C. with a sodium phosphate buffer to ensure a pH of 6.5. […]

Series [9] deals with C. thermocellum GH51 ABFase (Acetivibrio thermocellus, UniProt A3DIH0). The series is described as above. Format: biochemical, Clostridium thermocellum. The note with it: 65° C., sodium phosphate pH 6.5; 200 μM substrate, 2 μM enzyme. How it is done:
as §3, §4

The next series concerns C. japonicus GH51 ABFase. Described as above. Format: biochemical, Cellvibrio japonicus. The note with it: 37° C., sodium citrate pH 5.5; 200 μM substrate, 2 μM enzyme. How it is done: as §3, §4
For another series, the system named is P. anserina GH51 ABFase. Described as above. Format: biochemical, Podosporina anserina. As to conditions: 60° C., sodium citrate pH 5.5; 200 μM substrate, 2 μM enzyme. How it is done:
as §3, §4

The test system of the next series is B. subtilis GH51 ABFase. The series is described as above. Format: biochemical, Bacillus subtilis. As to conditions: 60° C., sodium phosphate pH 6.5; 200 μM substrate, 2 μM enzyme. Here is the method:
as §3, §4

Series [10] is described as follows: 3′-ABF blocking group stability testing (staging in incorporation buffer, UPLC). The series is classed as physicochemical. Here is the method:
T Nucleoside was blocked with a 3′-O-α-L-arabinofuranoside (3′-ABF,
blocking groups. 1 mL of 3′ blocked T nucleosides at 0.1 mM were made in a solution of 50 mM glycine buffer (pH 9.9), 50 mM NaCl, and 1 mM EDTA. F
These solutions were incubated at 60° C. in a heating block for 1 month. Spontaneous cleavage of the 3′-ABF under incorporation conditions (50 mM Glycine pH 9.8 at 60° C.) was measured by staging 3′-ABF deoxythymine to evaluate the stability of 3′-ABF as a blocking group. At set time points, 40 μL aliquots were taken and analyzed by UPLC (conditions/column) to determine the percentage of blocked nucleotide remaining and the eventual formation of unblocked nucleotide.

Series [11] deals with mutant DNA polymerase Pol A. In words: Primer extension assay, incorporation into DNA (33P-labelled primer:template, PAGE). Format: biochemical. How it is done: The incorporation of the 5′-triphosphate 3′-[(β)-D-glucopyranosyl]thymidine and 5′-triphosphate 3′-[(β)-D-xylopyranosyl]thymidine into DNA by a mutant DNA polymerase Pol A was tested using a primer extension assay. Briefly, a ^33P-labelled DNA primer:template (20 nM) was incubated with the DNA polymerase ([…]) and the nucleotide triphosphates (1 μM) in buffer (50 mM Glycine pH 9.6, 50 mM NaCl, 9 mM MgSO4, 1 mM EDTA) at 60° C. The rate was determined by calculating the percentage of incorporation compared to the initial primer template band and the incorporation results are shown in FIG. 6B.

Setting [12] is: 1 μM nucleotide, 50 mM Glycine pH 9.6, 60° C.

Each structure is given as a SMILES string.

C. thermocellum GH51 ABFase, sequence (A3DIH0 whole entry): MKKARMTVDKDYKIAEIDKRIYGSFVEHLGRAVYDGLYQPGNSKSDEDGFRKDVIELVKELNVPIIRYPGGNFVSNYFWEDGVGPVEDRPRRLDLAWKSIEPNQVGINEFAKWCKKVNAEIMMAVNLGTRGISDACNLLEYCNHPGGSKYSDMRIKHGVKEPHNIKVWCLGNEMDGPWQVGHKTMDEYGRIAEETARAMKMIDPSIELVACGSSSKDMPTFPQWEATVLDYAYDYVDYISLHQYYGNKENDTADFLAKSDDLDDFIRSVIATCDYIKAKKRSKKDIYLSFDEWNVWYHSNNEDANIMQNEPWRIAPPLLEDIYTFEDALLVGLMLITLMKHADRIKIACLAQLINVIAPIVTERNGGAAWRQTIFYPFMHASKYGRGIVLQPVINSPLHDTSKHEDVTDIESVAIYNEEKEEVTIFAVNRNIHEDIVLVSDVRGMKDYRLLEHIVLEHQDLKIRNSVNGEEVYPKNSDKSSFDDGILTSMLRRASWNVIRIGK

For the molecule `Cc1cn([C@H]2CC(O[C@H]3OC(CO)[C@@H](O)C(O)C3O)[C@@H](CO)O2)c(=O)[nH]c1=O` (stereo partly drawn) [3′-(α)-mannopyranoside thymidine, 3′-[(α)-D-mannopyranosyl]thymidine], the “cleavage of the 3′-mannopyranoside group” value in series [1] and in series [2] was “not observed” in each case.

Regarding `Cc1cn([C@H]2CC(O[C@@H]3OC(CO)[C@@H](O)C(O)C3O)[C@@H](CO)O2)c(=O)[nH]c1=O` (stereo partly drawn) [3′-(β)-glucopyranoside thymidine, 3′-[(β)-D-glucopyranosyl]thymidine], the “time to complete cleavage of the 3′-glucopyranoside group” value in series [3] is on record as “less than 2 minutes”; in [4] (pH 6.5 (100 mM sodium citrate)) it was “approximately 2 hours”; in series [4] (pH 7.5 (100 mM sodium phosphate)), “approximately 2 hours”; in series [5], “less than 2 minutes”.

For `Cc1cn([C@H]2CC(O[C@@H]3OC[C@@H](O)C(O)C3O)[C@@H](CO)O2)c(=O)[nH]c1=O` (stereo partly drawn) [3′-(β)-xylopyranoside thymidine, 3′-[(β)-D-xylopyranosyl]thymidine], the “cleavage of the 3′-xylopyranoside group” value in [6], in series [7] and in series [8] was “observed” in each case. Besides, the “time to full conversion of the substrate” value in series [6], in [7] and in series [8] was > 22 h in each case.

With `Cc1cn([C@H]2C[C@H](O[C@@H]3O[C@@H](CO)[C@H](O)[C@H]3O)[C@@H](COP(=O)(O)OP(=O)(O)OP(=O)(O)O)O2)c(=O)[nH]c1=O` [3′-ABF TTP, 3′-O-(α-L-arabinofuranosyl)-deoxythymidine-5′-triphosphate], the “% T fluorescence signal upon incorporation of the unlabeled nucleotide” value with Pol A (SBS polymerase) (NextSeq 2000, P2 flow cell) is reported as “fully drops”. Further, the “% T fluorescence signal recovered when standard SBS cycles resume” value in the series on Pol A (SBS polymerase) (of the initial baseline, before enzymatic cleavage) is “around 75%”. For the same molecule, the “recovery of the initial % T fluorescence signal after enzymatic cleavage” value with C. japonicum ABFase is “full recovery”.

As for `Cc1cn([C@H]2C[C@H](O[C@@H]3O[C@@H](CO)[C@H](O)[C@H]3O)[C@@H](CO)O2)c(=O)[nH]c1=O` [3′-ABF-dT, 3′-O-(α-L-arabinofuranosyl)-deoxythymidine], the “observed reaction constant kobs” value with T. maritima GH51 ABFase amounted to 0.15 s⁻¹; in [9], 0.01 s⁻¹; with C. japonicus GH51 ABFase, 0.03 s⁻¹; with P. anserina GH51 ABFase it was 0.19 s⁻¹; in the series on B. subtilis GH51 ABFase it was 0.035 s⁻¹. Besides, the “percentage of remaining blocked nucleoside” value in series [10] (after 31 days of staging at 60° C., 0.1 mM in 50 mM glycine buffer (pH 9.9), 50 mM NaCl, 1 mM EDTA) is reported as “About 100%”. The “stability of 3′-blocking group compared to AZM in solution” value in [10] (higher stability vs 3′-AZM-dT, 60° C., glycine buffer) is 80-100 fold.

For the molecule `Cc1cn([C@H]2CC(O[C@@H]3OC(CO)[C@@H](O)C(O)C3O)[C@@H](COP(=O)(O)OP(=O)(O)OP(=O)(O)O)O2)c(=O)[nH]c1=O` (stereo partly drawn) [5′-triphosphate 3′-[(β)-D-glucopyranosyl]thymidine], in series [11] (setting [12]), the incorporation observed entry is “no detectable incorporation” and the “substrate for Pol A” value is reported as “is a poor substrate for Pol A”.

Take `Cc1cn([C@H]2CC(O[C@@H]3OC[C@@H](O)C(O)C3O)[C@@H](COP(=O)(O)OP(=O)(O)OP(=O)(O)O)O2)c(=O)[nH]c1=O` (stereo partly drawn) [5′-triphosphate 3′-[(β)-D-xylopyranosyl]thymidine]: in [11] (setting [12]), the “substrate for Pol A” value was “is a substrate for Pol A”. For the same molecule, in [11] (compared to 5′-triphosphate 3′-[(α)-L-arabinofuranosyl]thymidine and 5′-triphosphate 3′-allyloxymethyl thymidine, 60° C., pH 9.6), the rate of incorporation entry is recorded as “slower”.
